What all share (format): cell-based
What all share (settings): COS-1

For test [1], the target named is T1, Long-wave-sensitive opsin 1 (Homo sapiens) (UniProt P04000).
T1 sequence (whole entry): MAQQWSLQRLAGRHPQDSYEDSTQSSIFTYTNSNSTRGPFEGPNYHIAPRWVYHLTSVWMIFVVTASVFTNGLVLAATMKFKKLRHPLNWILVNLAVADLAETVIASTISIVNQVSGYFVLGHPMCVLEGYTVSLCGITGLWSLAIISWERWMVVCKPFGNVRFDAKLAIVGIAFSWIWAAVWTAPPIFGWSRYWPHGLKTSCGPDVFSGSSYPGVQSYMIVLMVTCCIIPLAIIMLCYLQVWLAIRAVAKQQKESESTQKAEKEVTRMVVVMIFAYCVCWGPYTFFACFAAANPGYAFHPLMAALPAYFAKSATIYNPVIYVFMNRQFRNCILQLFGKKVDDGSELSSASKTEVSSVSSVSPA
The experiment in a line: Inverse agonist activity at human red cone opsin expressed in COS1 cells assessed as transducer activity at 20 uM by radioactive filter binding assay.

Test [2] concerns the target T1, Long-wave-sensitive opsin 1 (Homo sapiens). The experiment in a line: Inverse agonist activity at human red cone opsin expressed in COS1 cells assessed as transducer activity at 2 mM by radioactive filter binding assay.
The target is the same in test [3]. In words: Agonist activity at human red cone opsin expressed in COS1 cells assessed as activation of transducer at 20 uM by radioactive filter binding assay.
Test [4] has the same target. The experiment in a line: Inverse agonist activity at human red cone opsin expressed in COS1 cells assessed as transducer activity at 200 uM by radioactive filter binding assay.

Activity data for five compounds are collected here from ChEMBL document CHEMBL1949519.

Calls of active or inactive are those of the source. The calls are words filed in the database; no cut-off is given here.

As to `CC1=C(/C=C/C(C)=C\C=C\C=O)C(C)(C)CCC1`, the result in test [1] was Active. As to `CC1CCCC(C)C1` (stereo not given), the result in test [2] was Active.

For the compound `CC1=C(/C=C/C(C)=C/C=C/C(C)=C/C=C/C=O)C(C)(C)CCC1`, in test [3], the result was inactive. For the compound `C1CCCCC1`, the result in test [2] was inactive. As for `CC1=C(C=O)C(C)(C)CCC1`, the outcome in test [4] was Active.
